According to article PMC7821884, “BRAF inhibition protects against hearing loss in mice” (Science Advances, 2020):

Assays:
[1] = cited from earlier work
[2] = test system: human neuroblastoma and lung carcinoma cell lines; assay: Tumor Cell Titer-Glo viability assay, interference with cisplatin tumor killing (six cell lines); assay type: cell-based; conditions: compound at 3× protective IC50 (dabrafenib 35 μM, AZD5438 […]) + 15 μM cisplatin (200 μM for A549), 48 hours
Source text: (§1) In clinical settings, cisplatin is used to treat several tumor types, including neuroblastoma and lung carcinoma. […] Medium-alone–, cisplatin-alone–, and dabrafenib-alone–treated cells were used as controls, and viability was reported as percent survival compared to medium alone (Fig. 4E).
(§2) Three human neuroblastoma cell lines IMR-32, SH-SY5Y, and, SK-N-AS, as well as three human lung carcinoma cell lines SHP-77 small cell, H1155 non–small cell, and A549 non–small cell, were used to determine the compounds’ effect on cisplatin’s tumor-killing efficacy ([77]–[83]). Cell lines were purchased from the American Type Culture Collection (ATCC), and cell culture was conducted according to ATCC specifications. Neuroblastoma cell lines IMR-32 and SH-SY5Y are maintained in Dulbecco’s modified Eagle’s medium (DMEM) 1× with glucose (4.5 g/liter), L-glutamine, and sodium pyruvate (10-013-CV, Corning) with 10% fetal bovine serum (FBS) (35011132, Corning) and ampicillin (50 μg/ml; A5354-10ML, Sigma-Aldrich) added. The SK-N-AS cell line is maintained in DMEM 1× with D-glucose (4.5 g/liter), L-glutamine, and 25 mM Hepes (12430-054, Gibco) with 10% FBS, 0.1 mM nonessential amino acids, and ampicillin (50 μg/ml) added. A549 cells are maintained in F-12K medium with L-glutamine (30-2004, ATCC) with 10% FBS and ampicillin (50 μg/ml) added. […]

SHP-77 small cell = assay: Tumor Cell Titer-Glo viability assay, SHP-77; assay type: cell-based, human
Source text: as §1, §2

P42 FVB mice = assay: Cisplatin-induced hearing loss in adult mice (ABR, OHC counts, pERK)
Protocol: As described in Fig. 4A, baseline auditory brainstem response (ABR) thresholds for P42 FVB mice were established 1 week before experimental procedures. […] Animals were allowed 21 days after cisplatin injection to recover, and final ABR thresholds were recorded.
Ten milligrams of cisplatin (479306, Sigma-Aldrich) powder was dissolved in 10 ml of sterile saline (0.9% NaCl) at 37°C for 40 to 60 min. Cisplatin was administered to FVB mice at 30 mg/kg via intraperitoneal injection. One day before cisplatin injection, mice received 1 ml of saline by subcutaneous injection. To ameliorate dehydration after cisplatin injection, 1 ml of warm saline was injected twice per day for at least 7 days or until body weight started to recover. The cages of cisplatin-treated mice were placed on the heating pad for at least 7 days or until body weight began to recover. Fresh mush food was daily given for at least 7 days.
Compounds were dissolved in a mixture of 10% DMSO, 5% Tween 80 (P1754, Sigma-Aldrich), 40% PEG-E-300 (91462-1KG, Sigma-Aldrich), and 45% 0.9% saline.
ABR in mice was measured for left ears as described previously with minor modifications ([13], [34]). In brief, ABR waveforms were recorded in a sound booth (Industrial Acoustic Company) by using subdermal needles positioned in the skull, below the pinna, and at the base of the tail, and the responses were fed into a low-impedance Medusa digital biological amplifier system (RA4L; TDT; 20-dB gain). At each frequency, the stimulus intensity was reduced from 90 to 0 dB in 10-dB steps to determine the threshold decibel SPL when the electrical response was just above the noise floor. ABR waveforms were averaged in response to 500 tone bursts. The recorded signals were filtered by a band-pass filter from 300 Hz to 3 kHz. Pretreatment ABR recordings of adult FVB mice (aged 6 weeks) were acquired 1 week before all treatments, and posttreatment ABR measurements were recorded 21 days after cisplatin treatment or 14 days after noise exposure. ABR threshold was determined by the presence of any of three or more of the five waveform peaks. […] All thresholds and shifts were determined independently by two experimenters for each mouse. Individual ABR wave 1 amplitudes were measured as the difference between the positive peak and the following negative trough.
Cochleae from adult mice were prepared and examined as described previously ([85], [86]). All images were acquired with a confocal microscope (LSM 700 or 710, Zeiss). Samples were stained with phalloidin (A12379 or A12380, Invitrogen) or with antibodies for other markers. The following primary antibodies were used: anti–myosin VI (1:400; 25-6791; Proteus Bioscience), anti–myosin VIIa ([…];138-1-s, Developmental Studies Hybridoma Bank), anti-Tuj1 (1:250; 801201, BioLegend), anti-pERK (1:400; 9101S, Cell Signaling Technology), or anti-Ctbp2 (1:500; 612044, BD Transduction). Anti-rabbit Alexa Fluor 488 (1:400; A11034) and anti-mouse Alexa Fluor 647 (1:400; A31571) secondary antibodies were purchased from Invitrogen. ProLong gold antifade reagent with 4′,6-diamidino-2-phenylindole (P36941, Invitrogen) was used to counterstain nuclei.

[3] = test system: BRAF, MEK, and ERK phosphorylation; assay: Western blot of cisplatin-induced MAPK phosphorylation in HEI-OC1 cells; conditions: 14, 35, or 75 μM, 1 hour pretreatment, 50 μM cisplatin 1 hour
Protocol: Whole lysates of HEI-OC1 cells were prepared in lysis buffer (9803, Cell Signaling Technology) after adding protease (cOmplete ULTRA Tablets 05892791001) and phosphatase (PhosSTOP 04906845001) inhibitors (Roche). The lysates were centrifuged for 10 min at 15,000g at 4°C, and the supernatants were collected. Protein concentrations in protein solutions were determined with the BCA protein assay kit (23235, Thermo Fisher Scientific). Forty micrograms of total cell lysate was loaded on 4 to 20% SDS–polyacrylamide gel electrophoresis gels. The following antibodies were used for immunoblot analysis: anti-BRAF (14814S), anti-pBRAF (Ser^445, 2696S), anti-ERK1/2 (4695), anti-pERK1/2 (Thr^202/Tyr^204, 9101S), anti-MEK1/2 (9122S), and anti-pMEK1/2 (Ser^217/221, 41G9S) were obtained from Cell Signaling Technologies and anti–β-actin (C4; SC-47778) was purchased from Santa Cruz. The antibodies were used at dilutions ranging from 1:500 to 1:1000. Anti-mouse (P0447) and anti-rabbit (P0448) secondary antibodies were purchased from Dako Laboratories and diluted 1:5000. National Institutes of Health (NIH) ImageJ software was used to quantify the band intensities and recorded as a ratio to loading control β-actin. Each Western blot series (n) was carried out using cell lysates from separate experiments. Blot intensities were quantified using NIH ImageJ software.

[4] = design: method as in PMID 29039591, PMID 31818130; conditions: cited from earlier work

CC(C)(C)c1nc(-c2cccc(NS(=O)(=O)c3c(F)cccc3F)c2F)c(-c2ccnc(N)n2)s1 [dabrafenib]
half-life in circulation [1]: roughly 8 hours | effect on cisplatin-induced tumor cell death [2]: no inhibitory effect | effect on tumor cell death when combined with cisplatin (SHP-77 small cell; SHP-77, 35 μM + 15 μM cisplatin, 48 hours): increased tumor cell death | cell survival, drug treatment alone (SHP-77 small cell; SHP-77, 35 μM, no cisplatin): significant inhibition | ERK phosphorylation in cochlear SCs after cisplatin (P42 FVB mice; 100 mg/kg 45 min pretreatment, 1 hour after cisplatin 30 mg/kg i.p.): attenuated | protection of ABR threshold at 16 kHz (P42 FVB mice; 100 mg/kg oral, cisplatin 30 mg/kg i.p.): nearly full protection | loss of OHCs in cochlea, combined with cisplatin (P42 FVB mice; 100 mg/kg oral, cisplatin 30 mg/kg, 8-, 16-, 32-kHz regions): limited | OHC loss, drug alone (P42 FVB mice; 100 mg/kg oral, no cisplatin): No OHC loss | whole-body toxicity or ototoxic effects (P42 FVB mice; 3-day dabrafenib-alone treatment, weight, appearance/behavior, ototoxicity up to 21 days): did not observe whole-body toxicity or ototoxic effects | survival rate of mice (P42 FVB mice; cisplatin 30 mg/kg i.p., alone or combined with dabrafenib): 50% | crossing of the blood-labyrinth barrier (P42 FVB mice; inferred from effects in mice via oral delivery): crosses the blood-labyrinth barrier | ABR wave 1 amplitude at 16 kHz versus cisplatin alone (P42 FVB mice; significant at 90-dB SPL): higher | effect on cisplatin-induced BRAF, MEK, and ERK phosphorylation [3]: mitigated these changes in a dose-dependent manner | blood-brain barrier penetration [4]: penetrates the blood-brain barrier
